Experimental data: patent US20050089516A1, “Skin vitalizing composition for external use anti-aging preparation” (SHISEIDO COMPANY, LTD., priority 2002, published 2005)

Tests used:
[1] = test system: basement membrane structure directly under the epidermis; test: Transmission electron microscopy of artificial skin; assay type: cell-based, human; details: Example 1; 10 μM compound A, with or without 10 μg/ml aprotinin
Method: (§1) Collagen gel was obtained by preparing 10 ml of a human dermal fibroblasts (0.3-1×10^5 cell/ml)-suspended collagen solution (using I-AC collagen manufactured by Koken Co., Ltd.) on ice, followed by gelling the collagen in a 60 mm Petri dish at 37° C. The gel was then peeled from the bottom of the dish, the collagen gel was placed on metal, and a glass ring (12 mm inner diameter) was placed over the gel. A 0.4 ml portion of a human foreskin-derived epidermal keratinocyte (1×10^6/ml) suspension (KGM-DMEM (1:1) mixed medium containing 5% fetal bovine serum) was poured into the glass ring while avoiding leakage. The keratinocytes were allowed to adhere in a CO2 incubator overnight, and the ring was removed on the following day. The medium was filled in up to the border of the epidermal layer, and culturing was continued while exposing the epidermal layer to the air, to prepare a multilayered skin model with epidermis having a horny layer. […]

type VII collagen = test: Artificial skin culture, immunostaining with anti-type VII collagen antibody; assay type: cell-based, human; details: Example 1; culturing for 2 weeks; 10 μM compound A, 10 μg/ml aprotinin, 1 ng/ml interleukin-1β, 1 ng/ml TGF-α, 100 ng/ml PDGF; versus no-compound control
Method: as §1

Compound: COc1ccc(S(=O)(=O)N(Cc2cccnc2)C(C(=O)NO)C(C)C)cc1.Cl (centres unmarked) [compound A]
- basement membrane structure by transmission electron microscope [1]: induced formation of the basement membrane
- staining of type VII collagen directly under the basal keratinocytes (type VII collagen): weak but definite staining
